Data taken from patent US20230165811A1, “METHOD FOR TREATING SYMPTOMS OF VIRAL INFECTIONS” (priority 2020, published 2023).

Tested on: Murine RAW 264.7 macrophages
Experiment: LPS-induced TNF-α production in RAW 264.7 macrophages (ELISA)
Assay type: cell-based
Conditions: 1 μM compound for 1 h, then 1 μg/mL LPS, vs vehicle (DMSO), FIG. 1
Method: Murine RAW 264.7 macrophages (ATCC TIB-71) were cultured in Dulbecco's Modified Eagle's Medium supplemented with fetal bovine serum (FBS) at a final concentration of 10%. The cells were maintained in T75 flasks in humidified atmosphere with 5% CO2 at 37° C. Subculturing was performed every 2-3 days with a cellscraper.
RAW 264.7 macrophages were seeded onto 24-well plate in 1 mL of complete growth medium and left overnight to enable cell attachment. Next day the cells were washed with phosphate buffered saline and the medium was replaced with 0.5 mL of low serum medium containing 1% FBS. After 3 h of incubation, the medium was replaced with serum-free medium (0.5 mL) and incubated for 1.5 h. Then, the cells were exposed to 1 μM (R,R′)-4′-methoxy-1-naphthylfenoterol (MNF) or vehicle (DMSO) for 1 h followed by stimulation with 1 μg/mL lipopolysaccharide (LPS, E. coli 055: B5). Media were collected at the following timepoints after LPS administration: 0 h, 2 h, 4 h, 6 h, 8 h, and 10 h.
TNF-α was measured in all collected media samples using Quantikine ELISA kit (MTA00B) from R&D Systems according to manufacturer's protocol.
Statistical analysis Obtained data were assessed and plotted using GraphPad Prism 8.4.2. Two-way analysis of variance (ANOVA) followed by Sidak post-hoc test was used to compare mean TNF-α concentration across treatments and exposure times.

COc1ccc(C[C@@H](C)NC[C@H](O)c2cc(O)cc(O)c2)c2ccccc12 [(R,R′) MNF, (R,R′)-4′-methoxy-1-naphthylfenoterol]
inhibition of LPS-induced production of TNF-α (8 h timepoint after LPS): significant inhibition
inhibition of LPS-induced production of TNF-α (10 h timepoint after LPS): significant inhibition
